Assay results from ChEMBL document CHEMBL1201862, “PubChem BioAssay data set” (2004).
Active and inactive are the calls of the source.

Columns and labels:
[1] = target: Voltage-gated inwardly rectifying potassium channel KCNH2 (Homo sapiens, UniProt Q12809); conditions: Potency;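 also: confirmatory quantitative high-throughput screen measuring inhibition of hERG channel activity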
[2] = target: Dual specificity tyrosine-phosphorylation-regulated kinase 1A (Rattus norvegicus, UniProt Q63470); format: biochemical, Homo sapiens
Aminopeptidase N = target: T1, Aminopeptidase N (Plasmodium falciparum FcB1/Columbia, UniProt O96935); test: malaria alanyl aminopeptidase activity blockers – biochemical, fluorogenic H-Leu-NHMec substrate, 1536-well (AID 1445); design: species or system Plasmodium falciparum 3D7, 3D7
T1 sequence (O96935 whole entry): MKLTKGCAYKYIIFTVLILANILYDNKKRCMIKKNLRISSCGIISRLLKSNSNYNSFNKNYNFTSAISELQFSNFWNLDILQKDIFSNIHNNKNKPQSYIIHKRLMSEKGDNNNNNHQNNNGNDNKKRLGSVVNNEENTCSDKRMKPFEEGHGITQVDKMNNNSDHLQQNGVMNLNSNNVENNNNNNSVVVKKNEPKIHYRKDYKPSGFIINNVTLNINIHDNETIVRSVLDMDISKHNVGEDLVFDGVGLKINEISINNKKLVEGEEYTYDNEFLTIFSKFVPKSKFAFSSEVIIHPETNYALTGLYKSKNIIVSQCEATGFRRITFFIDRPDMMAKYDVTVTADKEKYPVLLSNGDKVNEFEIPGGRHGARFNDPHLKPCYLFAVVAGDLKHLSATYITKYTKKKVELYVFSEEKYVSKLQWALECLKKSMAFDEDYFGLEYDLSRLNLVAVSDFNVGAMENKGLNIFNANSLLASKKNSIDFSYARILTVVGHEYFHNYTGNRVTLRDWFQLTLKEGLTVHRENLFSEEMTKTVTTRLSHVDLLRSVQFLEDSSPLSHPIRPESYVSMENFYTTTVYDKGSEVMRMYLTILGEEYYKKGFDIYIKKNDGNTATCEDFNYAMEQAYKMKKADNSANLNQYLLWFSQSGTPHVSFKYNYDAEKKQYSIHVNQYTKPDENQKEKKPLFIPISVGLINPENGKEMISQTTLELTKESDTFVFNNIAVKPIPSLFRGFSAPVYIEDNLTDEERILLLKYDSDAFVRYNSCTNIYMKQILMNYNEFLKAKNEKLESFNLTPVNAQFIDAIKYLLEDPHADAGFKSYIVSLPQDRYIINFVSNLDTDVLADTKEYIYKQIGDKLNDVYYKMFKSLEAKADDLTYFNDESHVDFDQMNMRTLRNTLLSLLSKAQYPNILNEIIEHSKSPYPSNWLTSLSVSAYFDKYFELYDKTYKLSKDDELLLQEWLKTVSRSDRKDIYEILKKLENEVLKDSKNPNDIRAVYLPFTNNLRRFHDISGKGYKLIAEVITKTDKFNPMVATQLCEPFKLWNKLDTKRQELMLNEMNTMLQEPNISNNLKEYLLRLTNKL

[3] = NIH-3T3 fibroblast cytotoxicity, dose response, cytotoxicity control, cell-based, fluorescence, Alamar Blue, secondary assay (AID 2327); format: functional;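 also: NIH-3T3 mouse fibroblasts cultured with fluconazole at 8 µg/mL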
[4] = fluconazole-exposed Candida albicans growth modulators – fluorescence, retest, confirmation (AID 2467); format: functional, cell-based
[5] = target: T2, Serine/threonine-protein phosphatase (Candida dubliniensis (strain CD36 / CBS 7987 / NCPF 3949 / NRRLY-17841) (Yeast), UniProt B9W6M3); test: blockers of CaCl2-induced CDRE-lacZ signaling – S. cerevisiae, luminescence, secondary, dose response (AID 2388); format: functional, cell-based;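 also: yeast reporter cells carrying a calcineurin-responsive lacZ construct stimulated with calcium chloride; luminescent beta-galactosidase reporter signal in whole cells rather than isolated phosphatase activity; potency for inhibition where a drop in reporter signal means calcineurin blockade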
T2 sequence (B9W6M3 whole entry): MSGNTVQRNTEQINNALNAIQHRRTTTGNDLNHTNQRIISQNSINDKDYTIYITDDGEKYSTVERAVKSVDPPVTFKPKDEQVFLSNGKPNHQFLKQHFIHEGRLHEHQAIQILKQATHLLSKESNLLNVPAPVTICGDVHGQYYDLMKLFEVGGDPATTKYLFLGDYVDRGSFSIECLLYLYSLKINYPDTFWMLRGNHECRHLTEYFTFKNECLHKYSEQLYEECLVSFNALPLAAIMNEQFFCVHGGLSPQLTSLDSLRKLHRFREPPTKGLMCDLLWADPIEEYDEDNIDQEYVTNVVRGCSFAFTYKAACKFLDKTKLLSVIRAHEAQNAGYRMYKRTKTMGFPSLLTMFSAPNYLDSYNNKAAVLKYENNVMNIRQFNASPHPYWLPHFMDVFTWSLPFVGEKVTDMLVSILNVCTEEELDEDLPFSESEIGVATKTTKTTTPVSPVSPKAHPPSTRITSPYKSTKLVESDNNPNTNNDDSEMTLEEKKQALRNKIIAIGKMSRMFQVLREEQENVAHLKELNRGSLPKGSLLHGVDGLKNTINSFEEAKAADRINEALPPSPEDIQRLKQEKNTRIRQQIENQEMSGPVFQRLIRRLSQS

[6] = target: ATP-dependent molecular chaperone HSP82 (Candida albicans (strain WO-1) (Yeast), UniProt C4YTQ8); test: steroid-induced GRE reporter decrease in yeast – S. cerevisiae, luminescence, Hsp90 inhibitor project, dose response (AID 2400); format: functional, cell-based;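 also: beta-galactosidase luminescence from glucocorticoid response element reporter as proxy for Hsp90 function; inhibitor potency where signal loss means Hsp90 inhibition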
Mu-type opioid receptor = Mu-type opioid receptor (Homo sapiens, UniProt P35372); format: functional, cell-based;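 also: U2OS cells with beta-arrestin recruitment to OPRM1 by beta-gal complementation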
[7] = target: 5-hydroxytryptamine receptor 2A (Mus musculus, UniProt P35363); format: functional, cell-based;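 also: CHO-K1 cells with tagged receptor and beta-arrestin; agonist potency measured as compound-induced activation of the receptor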
[8] = target: T3, Heat shock factor protein 1 (Mus musculus, UniProt P38532); test: decrease of HSF1-responsive luciferase luminescence – cell-based, NIH3T3, dose retest, confirmation (AID 2382); format: functional;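 also: NIH3T3 fibroblasts with HSF1-driven luciferase reporter stressed by proteasome inhibitor MG132; luminescence from HSF1-driven luciferase expression after 8 hours of MG132 stress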
T3 sequence (P38532 whole entry): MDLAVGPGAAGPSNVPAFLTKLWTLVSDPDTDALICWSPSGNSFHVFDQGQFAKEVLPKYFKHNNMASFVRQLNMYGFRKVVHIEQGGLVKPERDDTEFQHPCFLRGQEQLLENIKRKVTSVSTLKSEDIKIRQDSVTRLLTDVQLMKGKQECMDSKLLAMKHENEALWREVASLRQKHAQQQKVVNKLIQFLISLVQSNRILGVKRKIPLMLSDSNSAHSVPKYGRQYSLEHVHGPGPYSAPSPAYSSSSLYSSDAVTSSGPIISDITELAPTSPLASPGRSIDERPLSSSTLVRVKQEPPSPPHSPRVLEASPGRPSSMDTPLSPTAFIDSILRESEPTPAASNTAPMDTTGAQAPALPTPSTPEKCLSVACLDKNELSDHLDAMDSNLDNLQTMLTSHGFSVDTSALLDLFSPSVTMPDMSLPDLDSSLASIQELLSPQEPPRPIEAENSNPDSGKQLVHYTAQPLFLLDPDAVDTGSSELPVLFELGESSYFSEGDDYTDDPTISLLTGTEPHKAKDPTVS

Escherichia coli = test: microbe, parasite or virus in culture
[9] = target: T4, Replicative DNA helicase DnaB (Mycobacterium tuberculosis, UniProt P9WMR3); test: DnaB intein splicing inhibitors, dose response, biochemical, cell-free fluorescence (AID 449749); format: functional
T4 sequence (P9WMR3 whole entry): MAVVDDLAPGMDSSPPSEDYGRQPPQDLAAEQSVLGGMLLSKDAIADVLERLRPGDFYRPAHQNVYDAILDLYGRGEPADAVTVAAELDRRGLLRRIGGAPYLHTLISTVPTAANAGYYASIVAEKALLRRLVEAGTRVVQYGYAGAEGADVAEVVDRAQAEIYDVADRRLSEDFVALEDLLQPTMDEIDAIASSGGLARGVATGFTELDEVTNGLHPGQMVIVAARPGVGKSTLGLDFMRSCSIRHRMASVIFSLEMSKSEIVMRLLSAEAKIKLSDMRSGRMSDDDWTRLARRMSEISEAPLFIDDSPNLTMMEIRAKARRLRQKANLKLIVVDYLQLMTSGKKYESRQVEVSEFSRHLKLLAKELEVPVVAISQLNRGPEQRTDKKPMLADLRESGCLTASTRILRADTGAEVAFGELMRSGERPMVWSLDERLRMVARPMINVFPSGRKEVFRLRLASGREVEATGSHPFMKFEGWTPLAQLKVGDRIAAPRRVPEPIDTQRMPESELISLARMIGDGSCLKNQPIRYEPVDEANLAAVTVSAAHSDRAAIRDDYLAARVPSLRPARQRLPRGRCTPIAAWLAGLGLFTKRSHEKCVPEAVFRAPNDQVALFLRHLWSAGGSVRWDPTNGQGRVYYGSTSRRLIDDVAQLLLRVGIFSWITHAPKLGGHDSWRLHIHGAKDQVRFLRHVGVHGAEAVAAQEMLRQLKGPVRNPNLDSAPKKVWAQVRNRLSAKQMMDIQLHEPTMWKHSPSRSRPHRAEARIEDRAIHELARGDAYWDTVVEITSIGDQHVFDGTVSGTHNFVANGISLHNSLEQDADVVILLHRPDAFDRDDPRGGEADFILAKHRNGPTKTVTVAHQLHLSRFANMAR

Vero [10] = test: cells; format: functional, cell-based; conditions: Chlorocebus sabaeus
Protein RecA = target: T5, Protein RecA (Mycobacterium tuberculosis, UniProt P9WHJ3); test: Fluorescence Cell-Free Homogeneous Dose Retest to Identify Inhibitors of RecA-Intein Splicing Activity. [Related pubchem assays (depositor defined):AID2097, AID2223, AID489010, AID492950]; format: functional
T5 sequence (P9WHJ3 whole entry): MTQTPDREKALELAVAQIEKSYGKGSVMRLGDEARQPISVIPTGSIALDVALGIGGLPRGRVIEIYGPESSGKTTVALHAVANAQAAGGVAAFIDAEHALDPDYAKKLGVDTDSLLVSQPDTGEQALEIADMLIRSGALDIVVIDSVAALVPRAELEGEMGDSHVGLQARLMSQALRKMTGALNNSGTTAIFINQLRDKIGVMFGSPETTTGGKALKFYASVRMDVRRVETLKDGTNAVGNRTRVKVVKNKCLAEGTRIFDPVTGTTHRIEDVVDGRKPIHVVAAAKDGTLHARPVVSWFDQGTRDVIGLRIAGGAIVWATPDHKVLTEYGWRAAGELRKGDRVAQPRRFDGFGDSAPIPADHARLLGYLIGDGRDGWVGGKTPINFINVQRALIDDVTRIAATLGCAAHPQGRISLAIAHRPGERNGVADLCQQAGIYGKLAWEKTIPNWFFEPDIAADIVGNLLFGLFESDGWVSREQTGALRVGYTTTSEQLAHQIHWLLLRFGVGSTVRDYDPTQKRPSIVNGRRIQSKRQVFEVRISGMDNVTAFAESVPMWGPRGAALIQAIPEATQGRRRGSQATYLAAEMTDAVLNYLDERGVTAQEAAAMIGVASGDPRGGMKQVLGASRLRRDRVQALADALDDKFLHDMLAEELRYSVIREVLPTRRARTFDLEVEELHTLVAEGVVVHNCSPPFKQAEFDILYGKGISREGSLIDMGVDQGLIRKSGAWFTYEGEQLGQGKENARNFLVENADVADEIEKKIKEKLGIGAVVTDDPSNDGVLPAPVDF

Vero [11] = test: cells; format: functional; conditions: Chlorocebus sabaeus
Paired box protein Pax-8 = Paired box protein Pax-8 (Homo sapiens, UniProt Q06710); test: PAX8 transcriptional activity inhibition in RMG-I – RMG-I cells, luciferase, cherry-pick, dose response (AID 687027); format: functional, cell-based;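 also: luciferase reporter driven by Pax8 target thyroperoxidase promoter measured by SteadyGlo luminescence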
[12] = general cell-killing toxicity readout – plate reader, dry powder samples, cytotoxicity control for PAX8 inhibitor project, dose response (AID 743021); format: functional, cell-based
[13] = tested on: Streptococcus sp. 'group A'; test: Streptococcus pyogenes SK(-)GAS viability under kanamycin – luminescence, BacTiterGlo, confirmation, counter-screen for streptokinase expression inhibitor project, dose response (AID 1900); format: functional, organism-based
Streptococcus = test: GAS UMAA2166 growth inhibition – luminescence, BacTiterGlo, counter-screen for streptokinase expression inhibitor project, dose response (AID 1915); format: functional, organism-based;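 also: potency for reduction of bacterial viability or growth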
INS1 = test: INS-1E survival protection against cytokine death – cell-based, luminescence, retest, dose response (AID 449756); format: functional; conditions: Rattus norvegicus;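 also: cell death triggered by IL-1 beta plus TNF-alpha plus IFN-gamma mixture; protective hits raise ATP signal compared with cytokine alone wells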

Voltage-gated inwardly rectifying potassium channel KCNH2, sequence (Q12809 whole entry): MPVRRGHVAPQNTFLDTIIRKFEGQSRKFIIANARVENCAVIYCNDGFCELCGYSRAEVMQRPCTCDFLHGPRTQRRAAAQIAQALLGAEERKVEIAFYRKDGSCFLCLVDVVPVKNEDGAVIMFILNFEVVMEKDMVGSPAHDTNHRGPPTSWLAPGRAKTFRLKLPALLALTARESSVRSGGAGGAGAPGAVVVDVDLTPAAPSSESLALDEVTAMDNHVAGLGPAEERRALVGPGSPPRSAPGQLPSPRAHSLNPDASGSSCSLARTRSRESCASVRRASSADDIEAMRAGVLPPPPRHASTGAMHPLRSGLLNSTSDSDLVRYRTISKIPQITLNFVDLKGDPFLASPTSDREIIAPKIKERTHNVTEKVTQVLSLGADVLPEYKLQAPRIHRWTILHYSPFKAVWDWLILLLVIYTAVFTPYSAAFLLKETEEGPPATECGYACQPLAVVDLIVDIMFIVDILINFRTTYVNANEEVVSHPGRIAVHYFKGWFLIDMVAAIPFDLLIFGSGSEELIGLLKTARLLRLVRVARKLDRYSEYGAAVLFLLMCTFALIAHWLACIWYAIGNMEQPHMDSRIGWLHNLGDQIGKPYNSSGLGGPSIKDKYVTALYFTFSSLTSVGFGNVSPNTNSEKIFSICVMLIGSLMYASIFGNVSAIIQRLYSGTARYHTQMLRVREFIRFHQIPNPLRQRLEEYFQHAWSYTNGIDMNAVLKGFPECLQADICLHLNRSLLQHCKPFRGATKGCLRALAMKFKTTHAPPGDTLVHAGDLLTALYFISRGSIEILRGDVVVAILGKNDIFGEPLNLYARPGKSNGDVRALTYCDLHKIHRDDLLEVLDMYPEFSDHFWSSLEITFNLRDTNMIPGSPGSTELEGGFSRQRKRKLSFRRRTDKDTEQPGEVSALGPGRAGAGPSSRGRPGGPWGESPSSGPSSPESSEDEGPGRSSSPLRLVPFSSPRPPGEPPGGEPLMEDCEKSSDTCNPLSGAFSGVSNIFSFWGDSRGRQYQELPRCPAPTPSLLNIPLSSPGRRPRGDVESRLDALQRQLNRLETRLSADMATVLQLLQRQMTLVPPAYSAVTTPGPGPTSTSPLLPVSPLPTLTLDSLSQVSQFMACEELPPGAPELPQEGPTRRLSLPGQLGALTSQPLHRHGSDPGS
ATP-dependent molecular chaperone HSP82, sequence (C4YTQ8 whole entry): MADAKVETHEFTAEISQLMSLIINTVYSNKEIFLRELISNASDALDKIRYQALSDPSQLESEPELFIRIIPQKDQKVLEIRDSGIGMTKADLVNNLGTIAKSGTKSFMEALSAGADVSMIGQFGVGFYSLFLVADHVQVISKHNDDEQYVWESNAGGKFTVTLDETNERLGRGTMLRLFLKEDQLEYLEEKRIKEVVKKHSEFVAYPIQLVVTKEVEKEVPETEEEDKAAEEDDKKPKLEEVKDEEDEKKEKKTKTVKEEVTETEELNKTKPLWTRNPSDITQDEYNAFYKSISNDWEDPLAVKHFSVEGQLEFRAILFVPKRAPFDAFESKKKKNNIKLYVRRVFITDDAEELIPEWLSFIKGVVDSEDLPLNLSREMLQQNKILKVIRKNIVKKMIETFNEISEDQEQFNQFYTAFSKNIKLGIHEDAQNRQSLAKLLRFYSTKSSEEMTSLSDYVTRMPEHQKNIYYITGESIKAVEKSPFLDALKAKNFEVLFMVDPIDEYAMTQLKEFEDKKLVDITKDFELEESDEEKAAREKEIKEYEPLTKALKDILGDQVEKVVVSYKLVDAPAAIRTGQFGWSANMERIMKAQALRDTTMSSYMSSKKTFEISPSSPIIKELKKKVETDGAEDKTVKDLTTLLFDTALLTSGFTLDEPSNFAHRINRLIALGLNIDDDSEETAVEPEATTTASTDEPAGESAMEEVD
5-hydroxytryptamine receptor 2A, sequence (P35363 whole entry): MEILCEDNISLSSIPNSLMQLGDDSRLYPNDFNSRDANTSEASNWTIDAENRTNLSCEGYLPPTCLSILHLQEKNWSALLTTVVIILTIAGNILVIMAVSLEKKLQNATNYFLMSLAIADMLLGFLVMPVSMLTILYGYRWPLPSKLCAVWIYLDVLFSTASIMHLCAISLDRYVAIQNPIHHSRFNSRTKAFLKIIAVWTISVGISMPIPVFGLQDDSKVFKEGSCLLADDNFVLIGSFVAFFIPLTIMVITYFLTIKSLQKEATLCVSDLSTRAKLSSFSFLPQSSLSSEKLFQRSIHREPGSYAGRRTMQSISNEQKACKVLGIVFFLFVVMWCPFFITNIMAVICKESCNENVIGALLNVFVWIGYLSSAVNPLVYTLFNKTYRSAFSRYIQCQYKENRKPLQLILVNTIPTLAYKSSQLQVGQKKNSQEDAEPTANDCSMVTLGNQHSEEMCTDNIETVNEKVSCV
Paired box protein Pax-8, sequence (Q06710 whole entry): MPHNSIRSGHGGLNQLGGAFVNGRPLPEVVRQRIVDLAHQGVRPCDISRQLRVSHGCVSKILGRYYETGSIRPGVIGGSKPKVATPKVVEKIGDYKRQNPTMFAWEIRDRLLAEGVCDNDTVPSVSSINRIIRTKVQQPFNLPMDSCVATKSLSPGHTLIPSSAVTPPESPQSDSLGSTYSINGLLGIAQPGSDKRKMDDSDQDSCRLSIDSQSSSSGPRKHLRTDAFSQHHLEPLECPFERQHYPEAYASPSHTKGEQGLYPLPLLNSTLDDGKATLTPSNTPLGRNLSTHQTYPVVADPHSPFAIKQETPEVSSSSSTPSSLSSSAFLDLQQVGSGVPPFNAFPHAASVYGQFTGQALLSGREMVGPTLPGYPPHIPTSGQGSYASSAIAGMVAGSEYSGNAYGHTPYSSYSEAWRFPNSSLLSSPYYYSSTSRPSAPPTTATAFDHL
Mu-type opioid receptor, sequence (P35372 whole entry): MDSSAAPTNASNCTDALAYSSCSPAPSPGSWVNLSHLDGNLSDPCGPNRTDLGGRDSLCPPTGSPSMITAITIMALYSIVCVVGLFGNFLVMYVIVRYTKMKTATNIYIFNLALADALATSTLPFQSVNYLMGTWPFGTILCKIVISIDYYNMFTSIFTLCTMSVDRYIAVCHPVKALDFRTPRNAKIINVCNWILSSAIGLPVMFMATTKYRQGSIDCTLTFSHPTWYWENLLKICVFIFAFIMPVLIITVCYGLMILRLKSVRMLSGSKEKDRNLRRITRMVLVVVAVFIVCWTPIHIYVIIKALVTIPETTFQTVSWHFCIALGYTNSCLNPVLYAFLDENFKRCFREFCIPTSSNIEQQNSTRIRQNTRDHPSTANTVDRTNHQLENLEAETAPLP

In the case of `OCc1c[nH]cn1`, the AC50 [1] is reported as 1.78 µM (inconclusive).

For `CCCC(=O)Nc1nc(-c2ccc3c(c2)OCCO3)cs1`, the AC50 [2] was 8.75 µM (active).

With `Cc1cc(-c2ccc(C(=O)O)s2)cnc1N` the IC50 (Aminopeptidase N) was 58.9 µM (active) and the AC50 [2] was 4.79 µM (active).

In the case of `COc1cccc(-c2nc(NC(C)C)c3ccccc3n2)c1O`, the EC50 [3] is reported as > 160 µM (inactive), the EC50 [4] is reported as 4.42 µM (active) and the EC50 [5] is reported as > 180 µM (inactive). For the same molecule, the EC50 [6] was 54.5 µM (active), the EC50 (Mu-type opioid receptor) was 92.5 µM (inactive) and the EC50 [7] was 8.51 µM (active).

With `CC(C)OC(=O)Cn1c(=O)oc2ccccc21` the EC50 [8] was > 195 µM (not active) and the AC50 (Escherichia coli) was 21.8 µM (active).

For `Cc1cccc(N(Cc2cc(O)nc3ccccc23)C(=O)CCl)c1`, the AC50 [9] was 10.5 µM (active), the IC50 (Vero [10]) was > 25 µM (active) and the EC50 (Protein RecA) was 1.67 µM (active). The CC50 (Vero [11]) was 5.83 µM (active), the AC50 (Paired box protein Pax-8) was 3.93 µM (active) and the AC50 [12] was 24.9 µM (active).

With `CC(Oc1cccnc1[N+](=O)[O-])C(=O)N1CCc2ccccc21` (stereo not given) the AC50 (Escherichia coli) was 22.2 µM (active).

For `CC(=O)Nc1ccc(NS(=O)(=O)c2ccc3ccccc3c2)cc1`, the AC50 (Escherichia coli) was 27.4 µM (active).

For `Cc1cc(N/N=C/c2c(O)ccc3ccccc23)nc(-c2ccccc2O)n1`, the EC50 [3] was > 160 µM (inactive), the EC50 [13] was 0.235 µM (active) and the EC50 [4] was 2.07 µM (active). For the same molecule, the EC50 [5] was > 180 µM (inactive), the EC50 (Streptococcus) was 0.425 µM (active) and the AC50 (INS1) was 1.69 µM (active). The EC50 [6] was 38.8 µM (active).

For `COc1cc(N)c(Cl)cc1C(=O)OCCN1CCCCC1`, the AC50 [1] was 25.1 µM (inconclusive).

In the case of `O=C(O)c1cc(/N=C/c2c(O)oc3ccccc3c2=O)ccc1O`, the AC50 [2] is reported as 32.5 µM (active).

With `CC(C)c1ccccc1` [ISOPROPYLBENZENE] the AC50 [1] was 1.58 µM (inconclusive).
